Measurements reported in patent US12202850B2, “Cyclobutyl purine derivative or salt thereof” (FUJIFILM Corporation, priority 2018, dated 2025).
Read-outs that look alike come from different tables or passages of the source.

Test system: adenovirus type 6 (ADV6)
Experiment: Evaluation of anti-adenovirus activity (CRL-11516 cells infected with ADV6, anti-hexon staining)
Assay type: cell-based
Conditions: read-out: Anti-AdV activity EC50

Row | Structure (SMILES) | EC50 (Human mastadenovirus C, 48 h) [µM] | further results
1 | Nc1nc2c(ncn2[C@H]2C[C@@H](CO)C2)c(=O)[nH]1 [Comparative Example 1, 2-Amino-9-(cis-3-(hydroxymethyl)cyclobutyl)-1,9-dihydro-6H-purin-6-one, reference compound] |  | EC50 (Human mastadenovirus C, CRL-11516 cells, ADV6 (50TCID50), 48 hours, 50% reduction of dark brown-stained cells): > 10 µM
2 | COC(=O)[C@H](C)NP(=O)(OC[C@H]1C[C@@H](n2cnc3c(OC)nc(N)nc32)C1)Oc1ccc(Br)cc1 (stereo partly drawn) [Example 1-1, methyl (((cis-3-(2-amino-6-methoxy-9H-purin-9-yl)cyclobutyl)methoxy)(4-bromophenoxy)phosphoryl)-L-alaninate] | < 0.1 | 
3 | COC(=O)[C@H](C)NP(=O)(OC[C@H]1C[C@@H](n2cnc3c(OC)nc(N)nc32)C1)Oc1cccc2ccccc12 (stereo partly drawn) [Example 1-2-1, methyl (((cis-3-(2-amino-6-methoxy-9H-purin-9-yl)cyclobutyl)methoxy)(naphthalen-1-yloxy)phosphoryl)-L-alaninate] | 0.1 to 1 | 
4 | COC(=O)[C@H](C)NP(=O)(OC[C@H]1C[C@@H](n2cnc3c(OC)nc(N)nc32)C1)Oc1ccc(Cl)cc1 (stereo partly drawn) [Example 1-2-2, Methyl (((cis-3-(2-amino-6-methoxy-9H-purin-9-yl)cyclobutyl)methoxy)(4-chloro-phenoxy)phosphoryl)-L-alaninate] |  | EC50: < 0.1 µM
5 | COc1nc(N)nc2c1ncn2[C@H]1C[C@@H](COP(=O)(OCCSC(=O)C(C)(C)C)Oc2ccccc2)C1 (stereo partly drawn) [Example 3-1, S-(2-((((cis-3-(2-amino-6-methoxy-9H-purin-9-yl)cyclobutyl)methoxy)(phenoxy)phosphoryl)oxy)ethyl)2,2-dimethylpropanethioate] | 1 to 10 | 
6 | COc1nc(N)nc2c1ncn2[C@H]1C[C@@H](COP(=O)(N[C@@H](C)C(=O)OCc2ccccc2)Oc2ccccc2)C1 (stereo partly drawn) [Example 3-2-1, Benzyl (((cis-3-(2-amino-6-methoxy-9H-purin-9-yl)cyclobutyl)methoxy) (phenoxy)phosphoryl)-L-alaninate] | 0.1 to 1 | 
7 | COC(=O)[C@H](C)NP(=O)(OC[C@H]1C[C@@H](n2cnc3c(OC)nc(N)nc32)C1)Oc1ccccc1 (stereo partly drawn) [Example 3-2-2, Methyl (((cis-3-(2-amino-6-methoxy-9H-purin-9-yl)cyclobutyl)methoxy)(phenoxy)phosphoryl)-L-alaninate] | 0.1 to 1 | 
8 | COc1nc(N)nc2c1ncn2[C@H]1C[C@@H](COP(=O)(N[C@@H](C)C(=O)OC(C)C)Oc2ccccc2)C1 (stereo partly drawn) [Example 3-2-4, Isopropyl (((cis-3-(2-amino-6-methoxy-9H-purin-9-yl)cyclobutyl)methoxy) (phenoxy)phosphoryl)-L-alaninate] | 1 to 10 | 
9 | COC(=O)[C@H](C)NP(=O)(OC[C@H]1C[C@@H](n2cnc3c(OC)nc(N)nc32)C1)Oc1ccc(Cl)cc1 (stereo partly drawn) [Example 8-2-1, Methyl (((cis-3-(2-amino-6-methoxy-9H-purin-9-yl)cyclobutyl)methoxy)(4-chlorophenoxy)phosphoryl)-L-alaninate] | < 0.1 | 
10 | COC(=O)[C@H](C)NP(=O)(OC[C@H]1C[C@@H](n2cnc3c(OC)nc(N)nc32)C1)Oc1ccc(Cl)cc1 (stereo partly drawn) [Example 8-2-2, Methyl (((cis-3-(2-amino-6-methoxy-9H-purin-9-yl)cyclobutyl)methoxy)(4-chlorophenoxy)phosphoryl)-L-alaninate] |  | EC50: 0.1 to 1 µM
